{
  "source": "patent US20240252662A1",
  "about": "“PEPTIDE DRUG CONJUGATES SPECIFIC TO FIBRONECTIN ISOTYPES FOR CANCER THERAPY” (priority 2021, published 2024)",
  "key": {"[1]": {"system": "PC3 prostate tumor xenografts", "conditions": "for tumor volume by the end of the treatment (mean±SD): daily i.p. 7.34 μmol/kg/day for 29 days, n=6, PBS control 1223±136 mm^3", "from_the_text": "(§1) Anti-tumor efficacy of ZD2-HZ-JAAP conjugate was also investigated using the mice bearing PC3 prostate or 4T1 breast tumor xenografts. For tumor xenografts, PC3 prostate or 4T1 breast cancer cells suspended in Matrigel-PBS were subcutaneously injected into the flank of nude mice or mammary fat pads of BALB/C mice, respectively. Tumor volumes were monitored and measured twice a week using a Vernier caliper. When the average tumor volumes reached 100 mm^3 for PC3 tumors, and 45 mm^3 for 4T1 tumors, the mice bearing tumor xenografts were randomized into PBS control, JQ1 and ZD2-HZ-JAAP treatment groups (n=6 for PC3 tumors or 5 for 4T1 tumors). Free JQ1 and ZD2-HZ-JAAP conjugates were administrated by daily intraperitoneal injection for 29 days at a dose of 7.34 μmol/kg/day. Tumor size and bodyweight were monitored twice a week. The tumor sizes were measured with Vernier calipers, and tumor volumes were calculated using the equation V=(L*W2)/2."}, "[2]": {"system": "PC3 prostate cancer, 4T1 and MDA-MB-231 breast cancer cells", "assay": "cell cytotoxicity of DOX conjugates in PC3, 4T1 and MDA-MB-231 cells", "type": "cell-based", "conditions": "at 2.5, 5 and 10 μM; compared with doxorubicin; FIG. 11", "method": "The reason for the lower cytotoxicity is the slow release of DOX from the ZD2-AM-DOX conjugated with an amide bond.\nThe cell cytotoxicity of the ZD2-PEG-HZ-DOX was tested using PC3 prostate cancer, 4T1 and MDA-MB-231 breast cancer cells at concentrations of […]."}, "[3]": {"system": "DLD-1-DR drug resistant colon cancer, PANC-1 and BXPC3 pancreatic cancer, CAL27, SCC4 and HSC3 head and neck cancer cells, MDA-MB-231 and 4T1 breast cancer …", "assay": "cell cytotoxicity of ZD2-HZ-JAAP in cancer cell panel", "type": "cell-based", "conditions": "after 48 hours incubation; compared with JQ1 or JAAP; FIG. 2", "method": "FIG. 2 provides graphs showing the cell viability of different cancer cells treated with ZD2-HZ-JAAP.\nThe cell cytotoxicity of ZD2-HZ-JAAP was tested using DLD-1-DR drug resistant colon cancer, PANC-1 and BXPC3 pancreatic cancer, CAL27, SCC4 and HSC3 head and neck cancer cells, MDA-MB-231 and 4T1 breast cancer cells, PC3 and C4-2 prostate cancer cells."}, "[4]": {"system": "human MDA-MB-231 triple negative breast cancer tumors", "assay": "in vivo anti-tumor activity of ZD2-HZ-JAAP, MDA-MB-231 tumors", "design": "species or system nude mice", "method": "The in vivo anti-tumor activity of ZD2-HZ-JAAP was evaluated in the nude mice carrying human MDA-MB-231 triple negative breast cancer tumors. The ZD2-HZ-JAAP drug conjugate was administrated to the mice with human MDA-MB-231 tumors by daily i.p. injection at a dose of 4.4 μmol/kg/day for 30 days. The tumor sizes and body weights of the mice were measured twice a week. The tumor growth was also monitored using bioluminescence imaging on the day 1, 16, and 25 after drug administration, and MRI imaging on the day 7 and 28 after the drug administration. For the ZD2-HZ-JAAP treatment group the tumor growth was inhibited with average tumor size of 80 mm^3 after 30-days of drug treatment, while for the no-treatment control group the tumors were kept growing with average tumor size of 580 mm^3 after 30-days of no treatment. […] In literature, the treatment dose of JQ1 is 50 mg/kg/day or 0.11 mmol/kg/day by i.p. injection to treat the mice with tumors. The dose of ZD2-HZ-JAAP administered by the inventors is 4.4 μmol/kg/day, which is 25-times lower than JQ1 dose. […] Since ZD2-HZ-JAAP is a target-drug that is delivered and accumulated to the tumor site, which results in low toxicity for normal tissues. Target-drug delivery results in high drug concentration at tumor site, and low concentration at normal tissues with efficient killing of tumor cells and low toxicity to normal cells."}, "[5]": {"system": "4T1 breast tumor xenografts", "assay": "anti-tumor efficacy of ZD2-HZ-JAAP, 4T1 breast tumor xenografts", "type": "in vivo, BALB/C mice", "conditions": "daily i.p. 7.34 μmol/kg/day for 29 days; n=5; PBS control 645±240 mm^3", "from_the_text": "as §1"}, "[6]": {"system": "4T1 breast tumor xenografts", "conditions": "i.p. 8.28 μmol/kg/week", "method": "Anti-tumor efficacy of ZD2-HZ-DOX conjugate was investigated using the mice bearing 4T1 breast tumor xenografts. For tumor xenografts, 2×10^5 4T1 breast cancer cells suspended in Matrigel-PBS were injected into the mammary fat pads of each BALB/C mouse. Tumor volumes were monitored and measured twice a week using a Vernier caliper. When the average tumor volumes reached 100 mm^3, the BALB/C mice bearing 4T1 breast tumors were randomized into PBS control, free doxorubicin and ZD2-HZ-DOX treatment groups (n=5). Free doxorubicin and ZD2-HZ-DOX conjugates were administrated by intraperitoneal injection for 23 days at a dose of 8.28 μmol/kg/week with 3-injections per week, and 2.76 μmol/kg for each injection. Tumor size and bodyweight were monitored twice a week. The tumor sizes were measured with Vernier calipers, and tumor volumes were calculated using the equation V=(L*W2)/2."}},
  "note": "Entries after “also recorded” stand apart in the source; their conditions may differ.",
  "data": [
    {"smiles": "Cc1sc2c(c1C)C(c1ccc(Cl)cc1)=N[C@@H](CC(=O)OC(C)(C)C)c1nnc(C)n1-2", "note": "[JQ1, reference compound]", "values": [
      {"measurement": "tumor volume by the end of the treatment (mean±SD)", "setting": "[1]", "result": "537±170", "unit": "mm^3"},
      {"measurement": "suppression of tumor growth", "setting": "[1]; same dose as ZD2-HZ-JAAP, 7.34 μmol/kg/day i.p.", "result": "didn't efficiently suppress tumor growth"}
    ]},
    {"smiles": "Cc1ccc(C(Cl)(c2ccccc2)c2ccccc2Cl)cc1", "note": "(stereo not shown) [ZD2-AM-DOX]", "values": [
      {"measurement": "cell cytotoxicity", "setting": "[2]", "result": "lower than that of doxorubicin"}
    ]},
    {"smiles": "Cc1ccc(C(Cl)(c2ccccc2)c2ccccc2Cl)cc1", "note": "(stereo not shown) [ZD2-HZ-JAAP]", "values": [
      {"measurement": "cell cytotoxicity", "setting": "[3]", "result": "lower than that of JQ1 or JAAP"},
      {"measurement": "tumor growth inhibition", "setting": "[4]; 4.4 μmol/kg/day, 25-times lower than literature JQ1 dose", "result": "efficiently inhibited the triple-negative breast cancer tumor growth"},
      {"measurement": "average tumor size", "setting": "[4]; after 30 days of treatment, daily i.p. 4.4 μmol/kg/day, no-treatment control 580 mm^3", "result": 80, "unit": "mm^3"},
      {"measurement": "body weight of the mice", "setting": "[4]; daily i.p. 4.4 μmol/kg/day for 30 days, vs no-treatment group", "result": "kept growing; also recorded: no significant difference"},
      {"measurement": "tumor volume by the end of the treatment (mean±SD)", "setting": "[1]", "result": "150±80", "unit": "mm^3"},
      {"measurement": "survival during treatment period", "setting": "[1]; mice bearing PC3 or 4T1 tumors, 29 days of treatment, 7.34 μmol/kg/day i.p.", "result": "all mice were survived"},
      {"measurement": "bodyweight change relative to initial weight", "setting": "[1]; mice bearing PC3 or 4T1 tumors, daily i.p. 7.34 μmol/kg/day, 29 days", "result": "≤ 10", "unit": "%"},
      {"measurement": "tumor volume by the end of the treatment (mean±SD)", "setting": "[5]", "result": "46±30", "unit": "mm^3"}
    ]},
    {"smiles": "COc1cccc2c1C(=O)c1c(O)c3c(c(O)c1C2=O)C[C@@](O)(C(=O)CO)C[C@@H]3O[C@H]1C[C@H](N)[C@H](O)[C@H](C)O1", "note": "[doxorubicin]", "values": [
      {"measurement": "survival", "setting": "[6]; 24-day treatment period", "result": "One mouse died on day 10, and all remaining mice died on day 11"},
      {"measurement": "loss of bodyweight relative to initial weight", "setting": "[6]; at day 10", "result": 25, "unit": "%"}
    ]}
  ]
}
